The text below walks through data of patent US20190343749A1, “PROTECTANTS” (Lincoln Manufacturing Inc., priority 2018, published 2019).

Some results are limits rather than exact numbers.

In the assay the test system is mixture of bacteria. The assay can be described thus: CTFA Preservative Challenge Test on a shampoo. The following applies: for Mixed Bacteria Day 7 Count / Mixed Bacteria Day 14 Count: shampoo containing the sample, initial count 4×10^6 cfu/mL; for kill reduction: shampoo, mixed bacteria. The assay is classed as cell-based. As for the experimental part: The CTFA Preservative Challenge Test was performed on a shampoo containing the samples below against a mixture of bacteria having an initial count of 4×10^6 cfu/mL. The shampoos inoculated with bacteria were allowed to stand for 7 or 14 days. The samples were evaluated for surviving organisms on day 7 or day 14 for bacteria-innoculated shampoos.
E. Kull et al., “Mixtures of Quaternary Ammonium Compounds and Long-chain Fatty Acids as Antifungal Agents”, Applied Microbiology, 9:538-541 (1961). The synergism value (QA/Qa+QB/Qb) was determined. […] Qb is the concentration of pircotine olamine alone (in percent by weight) required to yield 100% retardation of the bacteria. When the value of (QA/Qa +QB/Qb) is less than one, the mixture is synergistic. Values for (QA/Qa+QB/Qb) of 1 and greater represent an additive effect and an antagonistic effect, respectively.

Turning to `COc1ccc(C(=O)[O-])cc1.[Na+]` [1% sodium p-anisate, sodium p-anisate], under “day 7”, the “Mixed Bacteria Day 7 Count” value is recorded as 2.3 × 10^4 cfu/mL and the kill reduction entry is reported as “(<99% kill reduction)”.

In the case of `CCCCCCCCCCCCCCCC[n+]1ccccc1` [1% cetylpyridinium chloride, cetylpyridinium chloride], the “Mixed Bacteria Day 14 Count” value (day 14) is given as 7 × 10^3 cfu/mL.

Turning to `Cc1cc(CC(C)CC(C)(C)C)n(O)c(=O)c1.NCCO` (centres unmarked) [0.1% Piroctone olamine, piroctone olamine], the “concentration alone required to yield 100% retardation of the bacteria (Qa, Qb)” value (percent by weight in shampoo, plate count <10 cfu/g after 14 days) is given as > 0.1%. Moreover, under “day 7”, the “Mixed Bacteria Day 7 Count” value was 1.2 × 10^5 cfu/mL and the kill reduction entry is “(<97% kill reduction)”. For the same molecule, where the note is “day 14”, the “Mixed Bacteria Day 14 Count” value is reported as 1.3 × 10^5 cfu/mL and the kill reduction entry was “(<97% kill reduction)”.
